According to patent US20150283127A1, “SAQUINAVIR-NO FOR IMMUNOMODULATION” (ONCONOX APS, priority 2012, published 2015):

Legend:
[1] = tested on: spleen cells; details: ex vivo, cited from earlier work
[2] = tested on: human PBMC; details: PMA plus ionomycin, cited from earlier work
[3] = tested on: HIV; details: cited from earlier work
[4] = tested on: DLNC; assay: Viability of rat DLNC (MTT); format: cell-based; details: DLNC restimulated with MBP
Description: Experimental animals (C57BL/6 mice, BALB/c mice and Dark Agouti rats) were obtained from the Animal House Facility of the Institute for Biological Research “Sinisa Stanković”, Belgrade, Serbia. Spleen cells (SPC) were isolated from murine spleens and lymph node cells (LNC) were obtained from rat cervical lymph nodes of untreated animals. Draining lymph node cells (DLNC) were obtained from popliteal lymph nodes 8-10 days after immunization of rats with myelin basic protein (guinea pig MBP, kind gift from professor Alexander Fluegel, University of Goettingen, Germany) and complete Freund's adjuvant (CFA, Difco, Detroit, Mich.). The organs were mechanically disrupted, passed through 40-μm nylon mesh filter and the resulting suspension was collected by centrifugation. […] Obtained purity of CD4 population was more than 97% as determined by flow cytometry. […]
In order to assess the viability of SPC, LNC, DLNC and SCC by mitochondrial activity assay we used the mitochondrial-dependent reduction of 3-(4,5-dimethylthiazol-2-yl)-2,5-[…] bromide (MTT) to formazan. […] The absorbances in MTT assay were measured at […], with a correction at 690 nm, using an automated microplate reader (LKB 5060-006, LKB, Vienna, Austria).
Next, we determined the influence of Saq-NO on encephalitogen-specific generation of IFN-g and IL-17. […]

Row | Compound | IL-1 beta, IL-10 and TNF-alpha production ([1]; in vivo exposure) | IFN-gamma and IL-2 secretion by spleen cells vs control mice ([1]; mice previously treated) | TNF-alpha synthesis ([2]; 10 to 20 μM) | Synthesis of IL-2 and IFN-gamma production ([2]; concentration between 10 and 20 μM) | Anti-HIV potency relative to parental drug [3] | DLNC viability [4]
1 | CC(C)(C)NC(=O)[C@@H]1C[C@@H]2CCCC[C@@H]2CN1C[C@@H](O)[C@H](Cc1ccccc1)NC(=O)[C@H](CC(N)=O)NC(=O)c1ccc2ccccc2n1 [Saq, (2S)—N-[(2S,3R)-4-[(3S)-3-(tert-butylcarbamoyl)-decahydroisoquinolin-2-iy]-3-hydroxy-1-phenylbutan-2-il]-2-(quinolin-2-ylformamido)butanediamide, reference compound] | not modified | secreted more | without influencing | downregulate |  | 
2 | CC(C)(C)NC(=O)C1C[C@@H]2CCCC[C@@H]2CN1CC(O[N+](=O)[O-])[C@H](Cc1ccccc1)NC(=O)C(CC(N)=O)NC(=O)c1ccc2ccccc2n1 (stereo partly drawn) [Saq-NO, nitric ester of Saquinavir] |  |  |  |  | retained | much less than its influence on IFN-g and IL-17 production
